The numbers were not newly measured in US11311853B2, “Process for the preparation of double crosslinked core-shell polymeric nanoparticles for multimodal imaging and theranostic applications” (FONDAZIONE ISTITUTO ITALIANO DI TECNOLOGIA, priority 2017, dated 2022), which cites them from elsewhere.

Molecules are shown by their SMILES.

For this data set the following is noted: commercial Gd-DTPA.

On to `O=C([O-])CN(CCN(CC(=O)[O-])CC(=O)O)CCN(CC(=O)[O-])CC(=O)O.[Gd+3]` [Gd-DTPA, Gd-diethylenetriaminepentaacetic acid], for which the relaxivity in MRI is 4 mM⁻¹ s⁻¹.
